Structures can show the parent of a compound that is named as a salt. Where two headings read alike, the source gives them in different places.
Molecular target: SARS-CoV-2 3CLpro (Severe acute respiratory syndrome coronavirus 2, UniProt P0DTD1)
Test: biochemical
Assay type: biochemical
Design: Replicate_1 / Replicate_2 / mean / mean (LOPAC_screen_w_protease): unit not given here
Conditions: for inhibition at 5 µM: 4 h
[1] = sheet LOPAC_screen_w_protease, primary screen with protease, compound at 5 µM, mean of two replicates
[2] = sheet LOPAC_screen_w_protease, primary screen with protease, compound at 5 µM, replicate 1
[3] = sheet LOPAC_screen_w_protease, primary screen with protease, compound at 5 µM, replicate 2
[4] = sheet LOPAC_screen_w_protease, LOPAC1280 at 5 µM, mean of two replicates
[5] = sheet LOPAC_screen_w_protease, LOPAC1280 at 5 µM, replicate 1
[6] = sheet LOPAC_screen_w_protease, LOPAC1280 at 5 µM, replicate 2
[7] = sheet LOPAC_screen_w_protease, primary screen at 5 µM, mean of two replicates, read-out: mean (LOPAC screen with protease)
[8] = sheet LOPAC_screen_w_protease, primary screen at 5 µM, replicate 1, read-out: Replicate_1 (LOPAC screen with protease)
[9] = sheet LOPAC_screen_w_protease, primary screen at 5 µM, replicate 2, read-out: Replicate_2 (LOPAC screen with protease)
[10] = LOPAC1280 primary screen with protease, 5 µM compound, mean of the two replicates
[11] = LOPAC1280 primary screen with protease, 5 µM compound, replicate 1
[12] = sheet LOPAC_screen_w_protease, primary screen of LOPAC1280 at 5 µM with protease, mean of the two replicates, read-out: mean
[13] = sheet LOPAC_screen_w_protease, primary screen of LOPAC1280 at 5 µM with protease, replicate 1, read-out: Replicate_1
[14] = sheet LOPAC_screen_w_protease, primary screen of LOPAC1280 at 5 µM with protease, replicate 2, read-out: Replicate_2
[15] = sheet LOPAC_screen_w_protease, LOPAC1280 at 5 µM, mean of two replicates, read-out: mean
[16] = sheet LOPAC_screen_w_protease, LOPAC1280 at 5 µM, replicate 1, read-out: Replicate_1
[17] = sheet LOPAC_screen_w_protease, LOPAC1280 at 5 µM, replicate 2, read-out: Replicate_2

Question: With `CN(C(=O)CCCOc1ccc2[nH]c(=O)ccc2c1)C1CCCCC1` [Cilostamide] as the molecule, how does the inhibition at 5 µM (sheet LOPAC_screen_w_protease, primary screen with protease, mean of two replicates, read-out: mean) read?
Answer: 2.23%

Question: What about the inhibition at 5 µM (sheet LOPAC_screen_w_protease, primary screen with protease, replicate 1, read-out: Replicate_1) of the same molecule?
Answer: 1.11%

Question: What about the inhibition at 5 µM (sheet LOPAC_screen_w_protease, primary screen with protease, replicate 2, read-out: Replicate_2) of the same molecule?
Answer: 3.35%

Question: `CC(C)(C)c1onc(OCP(=O)(O)O)c1CC(N)C(=O)O` (centres unmarked) [ATPO] was tested. Which mean [1] did it give?
Answer: 3.0772

Question: And the Replicate_1 [2]?
Answer: 4.002

Question: And the Replicate_2 [3]?
Answer: 2.152

Question: For `CN(CCOc1ccc(C[C@H](Nc2ccccc2C(=O)c2ccccc2)C(=O)O)cc1)c1ccccn1` [GW1929], which mean [4] is on record?
Answer: 1.294

Question: And the Replicate_1 [5]?
Answer: 1.2073

Question: What about the Replicate_2 [6] of the same molecule?
Answer: 1.38

Question: Which results are given for `Clc1ccc(C(c2ccc(Cl)cc2)n2cc[n+](CC(OCc3ccc(Cl)cc3Cl)c3ccc(Cl)cc3Cl)c2)cc1` (centres unmarked) [Calmidazolium chloride]?
Answer: inhibition at 5 µM [7]: 9.31%; inhibition at 5 µM [8]: 8.14%; inhibition at 5 µM [9]: 10.5%

Question: What does the source list for `CC[C@@]1(O)C(=O)OCc2c1cc1n(c2=O)Cc2cc3ccccc3nc2-1` [(S)-(+)-Camptothecin]?
Answer: mean (sheet LOPAC_screen_w_protease, primary screen of LOPAC1280 at 5 µM with protease, mean of the two replicates): 3.282; Replicate_1 (sheet LOPAC_screen_w_protease, primary screen of LOPAC1280 at 5 µM with protease, replicate 1): 4.077; Replicate_2 (sheet LOPAC_screen_w_protease, primary screen of LOPAC1280 at 5 µM with protease, replicate 2): 2.488

Question: Which results are given for `O=P1(N(CCCl)CCCl)NCCCO1` (centres unmarked) [Cyclophosphamide monohydrate]?
Answer: inhibition at 5 µM (read-out: Replicate_1): -1.54%; inhibition at 5 µM (read-out: Replicate_2): 3.01%; inhibition at 5 µM (read-out: mean): 0.736%

Question: With `O=[N+]([O-])c1cc2nc(O)c(O)nc2cc1[N+](=O)[O-]` [DNQX] as the molecule, how does the Replicate_1 read?
Answer: 2.956

Question: What about the Replicate_2 of the same molecule?
Answer: 2.135

Question: And the mean?
Answer: 2.546

Question: What does the source list for `N#CC(=Cc1c[nH]c2ccccc12)C(=O)c1ccc(O)c(O)c1` [Tyrphostin AG 808]?
Answer: mean (LOPAC_screen_w_protease) [10]: 1.999; Replicate_1 (LOPAC_screen_w_protease) [11]: 2.979; Replicate_2 (LOPAC_screen_w_protease) (LOPAC1280 primary screen with protease, 5 µM compound, replicate 2): 1.0189

Question: What does the source list for `NC(CCP(=O)(O)O)C(=O)O` (racemic) [(±)-2-Amino-4-phosphonobutyric acid]?
Answer: mean [4]: 1.206; Replicate_1 [5]: 2.762; Replicate_2 [6]: -0.351

Question: How did the mean [1] turn out when `O=C(OCCN1CCCCC1)c1c[nH]c2ccccc12` [SB 203186] was run?
Answer: 2.639

Question: What about the Replicate_1 [2] of the same molecule?
Answer: 2.947

Question: And the Replicate_2 [3]?
Answer: 2.331

Question: How did the inhibition at 5 µM (sheet LOPAC_screen_w_protease, LOPAC1280 primary screen at 5 µM, with protease, mean of the two replicates, read-out: mean) turn out when `O=C1NCN(c2ccccc2)C12CCN(CC1COc3ccccc3O1)CC2` (centres unmarked) [Spiroxatrine] was run?
Answer: 0.522%

Question: And the inhibition at 5 µM (sheet LOPAC_screen_w_protease, LOPAC1280 primary screen at 5 µM, with protease, replicate 1, read-out: Replicate_1)?
Answer: 1.86%

Question: And the inhibition at 5 µM (sheet LOPAC_screen_w_protease, LOPAC1280 primary screen at 5 µM, with protease, replicate 2, read-out: Replicate_2)?
Answer: -0.819%

Question: Which inhibition at 5 µM [12] does the source give for `CCn1cc(C(=O)O)c(=O)c2ccc(Cc3ccccc3)nc21` [Amfonelic acid] here?
Answer: 3.23%

Question: What about the inhibition at 5 µM [13] of the same molecule?
Answer: 4.99%

Question: What about the inhibition at 5 µM [14] of the same molecule?
Answer: 1.47%

Question: Which results are given for `Br.COc1ccc2c(c1)[C@]13CCCC[C@@H]1[C@H](C2)N(C)CC3.O`?
Answer: mean (LOPAC_screen_w_protease) [10]: 1.973; Replicate_1 (LOPAC_screen_w_protease) [11]: 1.427

Question: `CCCNCC(O)COc1ccccc1C(=O)CCc1ccccc1` (centres unmarked) [Propafenone hydrochloride] was tested. Which inhibition at 5 µM [12] did it give?
Answer: 3.27%

Question: What about the inhibition at 5 µM [13] of the same molecule?
Answer: 3.05%

Question: What about the inhibition at 5 µM [14] of the same molecule?
Answer: 3.48%

Question: For `CC(N/C(=N\C#N)Nc1ccncc1)C(C)(C)C` (centres unmarked) [Pinacidil], which inhibition at 5 µM [15] is on record?
Answer: 1.05%

Question: And the inhibition at 5 µM [16]?
Answer: 2.49%

Question: And the inhibition at 5 µM [17]?
Answer: -0.383%

Question: `C[N+](C)(C)CC(=O)O` [Betaine hydrochloride] was tested. Which inhibition at 5 µM [15] did it give?
Answer: 1.07%

Question: What about the inhibition at 5 µM [16] of the same molecule?
Answer: 0.144%

Question: What about the inhibition at 5 µM [17] of the same molecule?
Answer: 1.99%

Question: `CC(C)NNC(=O)c1ccncc1.O=P(O)(O)O` [Iproniazid phosphate] was tested. Which mean [1] did it give?
Answer: 2.591

Question: What about the Replicate_1 [2] of the same molecule?
Answer: 1.295

Question: And the Replicate_2 [3]?
Answer: 3.887

Question: Which results are given for `NCCSSCCN` [Cystamine dihydrochloride]?
Answer: inhibition at 5 µM [7]: 14.4%; inhibition at 5 µM [8]: 14.2%; inhibition at 5 µM [9]: 14.5%

Question: Which mean (sheet LOPAC_screen_w_protease, primary screen with protease, 5 µM, mean of two replicates) does the source give for `CC(=O)OC(C)C[N+](C)(C)C.[Cl-]` (stereo not drawn) [Acetyl-beta-methylcholine chloride] here?
Answer: 0.2718

Question: And the Replicate_1 (sheet LOPAC_screen_w_protease, primary screen with protease, 5 µM, replicate 1)?
Answer: 1.198

Question: What about the Replicate_2 (sheet LOPAC_screen_w_protease, primary screen with protease, 5 µM, replicate 2) of the same molecule?
Answer: -0.6541
